Source: patent publication US20250136552A1, “ANTAGONISTS OF CAV 2.3” (LARIO THERAPEUTICS LIMITED, priority 2021, published 2025)

Each compound was assayed against Cav2.3 (Homo sapiens, UniProt Q15878) (assay: Human Cav2.3 channel calcium-influx assay). Settings: HEK-293 T-Rex/Kir2.1 cells with inducible Cav2.3e-β4-α2δ1; Fluo8 fluorescence; 8-point dose response from 30 μM; no pluronic acid; read-out: Cav2.3 (pIC50) (converted).
Chain of Cav2.3 (Q15878 1-2270 isoform Q15878-3): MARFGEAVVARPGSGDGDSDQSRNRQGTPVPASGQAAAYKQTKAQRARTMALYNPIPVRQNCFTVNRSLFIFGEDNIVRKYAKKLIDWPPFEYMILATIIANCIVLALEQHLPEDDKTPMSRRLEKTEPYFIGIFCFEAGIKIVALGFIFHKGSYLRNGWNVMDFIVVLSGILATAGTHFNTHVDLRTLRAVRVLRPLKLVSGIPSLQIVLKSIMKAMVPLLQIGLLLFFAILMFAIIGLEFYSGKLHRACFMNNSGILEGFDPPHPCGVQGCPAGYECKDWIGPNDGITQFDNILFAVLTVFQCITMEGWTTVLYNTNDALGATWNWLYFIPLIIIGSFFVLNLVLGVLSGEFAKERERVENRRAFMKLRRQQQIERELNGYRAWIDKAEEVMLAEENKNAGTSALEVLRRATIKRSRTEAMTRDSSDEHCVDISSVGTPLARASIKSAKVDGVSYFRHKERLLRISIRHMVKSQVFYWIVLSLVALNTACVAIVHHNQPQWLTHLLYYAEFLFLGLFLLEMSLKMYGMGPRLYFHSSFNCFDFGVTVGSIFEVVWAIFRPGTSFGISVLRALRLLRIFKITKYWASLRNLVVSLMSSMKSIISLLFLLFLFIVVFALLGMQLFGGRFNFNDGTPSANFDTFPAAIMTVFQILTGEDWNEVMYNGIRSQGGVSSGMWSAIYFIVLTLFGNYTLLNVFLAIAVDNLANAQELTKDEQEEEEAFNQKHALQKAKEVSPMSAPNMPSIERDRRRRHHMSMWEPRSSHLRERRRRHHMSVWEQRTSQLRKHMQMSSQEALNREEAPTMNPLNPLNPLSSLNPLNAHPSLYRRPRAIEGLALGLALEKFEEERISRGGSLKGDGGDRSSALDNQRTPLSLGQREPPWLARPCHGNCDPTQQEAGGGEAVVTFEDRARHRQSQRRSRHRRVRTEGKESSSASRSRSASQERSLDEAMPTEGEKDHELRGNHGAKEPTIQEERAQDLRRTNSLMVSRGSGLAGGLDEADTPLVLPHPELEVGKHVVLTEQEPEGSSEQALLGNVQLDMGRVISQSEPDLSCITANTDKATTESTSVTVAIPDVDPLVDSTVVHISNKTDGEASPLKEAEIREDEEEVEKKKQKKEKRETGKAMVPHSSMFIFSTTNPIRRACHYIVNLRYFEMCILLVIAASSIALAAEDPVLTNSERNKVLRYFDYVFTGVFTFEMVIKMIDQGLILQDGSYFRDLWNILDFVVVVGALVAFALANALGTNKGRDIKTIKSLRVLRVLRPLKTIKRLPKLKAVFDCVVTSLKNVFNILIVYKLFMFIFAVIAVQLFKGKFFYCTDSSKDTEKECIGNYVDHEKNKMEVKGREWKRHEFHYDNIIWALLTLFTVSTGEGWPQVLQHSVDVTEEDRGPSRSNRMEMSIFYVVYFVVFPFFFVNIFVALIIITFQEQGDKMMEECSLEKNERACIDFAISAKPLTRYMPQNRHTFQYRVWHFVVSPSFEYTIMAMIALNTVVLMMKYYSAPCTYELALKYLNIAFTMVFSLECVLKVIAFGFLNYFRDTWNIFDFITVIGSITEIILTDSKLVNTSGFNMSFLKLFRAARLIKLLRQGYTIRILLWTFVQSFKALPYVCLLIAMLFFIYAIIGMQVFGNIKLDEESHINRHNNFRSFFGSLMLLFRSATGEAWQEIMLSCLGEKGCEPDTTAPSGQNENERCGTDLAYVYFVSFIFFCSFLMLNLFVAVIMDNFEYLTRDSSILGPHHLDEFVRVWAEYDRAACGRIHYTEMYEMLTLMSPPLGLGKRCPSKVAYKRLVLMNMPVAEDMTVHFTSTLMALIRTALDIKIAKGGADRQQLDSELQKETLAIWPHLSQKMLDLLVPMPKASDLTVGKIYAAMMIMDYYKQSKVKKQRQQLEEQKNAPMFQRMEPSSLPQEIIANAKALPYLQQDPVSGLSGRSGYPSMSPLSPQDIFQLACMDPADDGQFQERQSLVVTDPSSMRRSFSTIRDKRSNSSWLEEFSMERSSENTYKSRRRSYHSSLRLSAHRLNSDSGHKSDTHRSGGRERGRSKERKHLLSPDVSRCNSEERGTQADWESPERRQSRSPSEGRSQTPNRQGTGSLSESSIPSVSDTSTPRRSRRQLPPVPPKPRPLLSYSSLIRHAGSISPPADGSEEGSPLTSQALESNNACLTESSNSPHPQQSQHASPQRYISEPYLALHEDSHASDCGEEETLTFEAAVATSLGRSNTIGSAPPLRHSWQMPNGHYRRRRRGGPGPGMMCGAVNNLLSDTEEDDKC
Format: cell-based
Description: HEK-293 T-Rex cells were transfected with pcDNA3.1-Kir2.1 to generate a stable cell line. After antibiotic selection, the obtained stable pools were analysed using FLIPR^TETRA(membrane potential assay), and a limiting dilution was performed and a HEK-293 T-Rex/Kir2.1 clone was selected. The clone was transfected with pcDNA3.1-Cav2.3e and pBud-Cav-β4-α2δ1 to generate a stable cell line where the Cav2.3e expression is inducible. After antibiotic selection, functional clone pool analysis and two successive limiting dilutions, the final clone underwent a qPCR analysis and a biophysical and pharmacological validation using patch-clamp.
A compound plate, containing 10 test compounds in eight-points dose response with n=4, was prepared. Test compounds dose response curves were prepared in automated fashion in 100% DMSO at CyBio Felix and starting from a stock solution in 100% DMSO; a defined volume was serially moved into destination wells pre-filled with the desired DMSO volume; stock solution concentration volumes were dependent on the final compounds concentrations to be tested and the final DMSO content used in the assay. For the assay test compounds dose response curves ranged from 30 μM and half log dilution with 0.3% final DMSO. In order to obtain the 8-points dose response curve all the concentrations were created by starting from a 10 mM DMSO stock solution and then moving 9.5 μL into a destination well pre-filled with 20.5 μL of 100% DMSO and repeating this step seven times. This initial step was done into 96 MTP plates, 10 compounds/plate. One 384 MTP was then reformatted to contain all the 10 compounds at 8 concentrations, quadruplicate data points. This so obtained 384 MTP compound plate served as source plate in a “mother to child” process with a CyBi®-Well dispenser in which 0.7 μL of compounds were moved into a destination plate pre-filled with 57.6 μL of Tyrode's buffer 0 mM K^+, thus obtaining 4× concentrated compounds solution. In columns 1-2 and 23-24 the control wells were added. Both “source” compound plate and “destination” compound plate were barcoded and a relationship between the two plates was thus generated.
The day before the experiment, cells were detached by gentle wash with DPBS, followed by 5 min incubation at 37° C. with Trypsin solution. Detached cells were diluted with OptiMEM+Doxycycline at 0.2 μg/mL, counted and plated in Poly-D-Lysine coated black/clear bottom (15.000 c/well in 20 μl/well) by the use of a MATRIX WellMate dispenser. Plates were placed into a humidified incubator at 37° C. with 5% CO2 until the experimental day. 24 h after seeding 10 μL/well of 1.5× Fluo8 NW dye solution prepared in Tyrode's buffer 0 mM K^+ were added on top of the seeding medium. Cell plates were incubated for 40-60 min at RT in the dark. We then Injected off-line 10 μL/well of test compounds and controls 4× concentrated in Tyrode's Buffer 0 mM K+ with the CyBi®-Well instrument. Cell plates were incubated 3 minutes at RT. Finally, we injected 20 μL/well of 3× concentrated activator solution (K20-Na130-Ca2 buffer: 20 mM KCl, 130 mM NaCl, 2 mM CaCl2, 10 mM HEPES, 10 mM Glucose, final concentrations, prepared starting from “K0-Na150-Ca2” and “K150-Na0-Ca2” buffers) at FDSS7000EX instrument and read emitted fluorescence for 130 seconds.
Data analysis was performed with Genedata Screener® software and reported compounds activity as % effect in relation to the normalization standards. The Kinetic Response Value (KRV) is calculated as follows:
KRV=Maximal fluorescence recorded from second 5 to second 130 minus baseline fluorescence, computed as average from second 1 to second 2, of the kinetic trace. The KRV was normalized versus Neutral Controls and Inhibitor Controls in order to obtain the Activity[%] for each well. […] Therefore, the compound activity values were scaled (based on the two references) to a common range (two-point normalization). […]
Compound CC(C)C(=O)N1CCc2ccc(S(=O)(=O)NCC(C)c3ccc(F)cc3)cc2C1 (single isomer, unassigned) [Example 17, N-(2-(4-fluorophenyl)propyl)-2-isobutyryl-1,2,3,4-tetrahydroisoquinoline-7-sulfonamide] has an IC50 of 6170 nM.
For CC(C)C(=O)N1Cc2ccc(S(=O)(=O)N(C)[C@@H](C)c3ccccc3)cc2C1 [Example 40, (S)-2-isobutyryl-N-methyl-N-(1-phenylethyl)isoindoline-5-sulfonamide], the IC50 was 2880 nM.
Work on CCN([C@@H](C)c1ccccc1)S(=O)(=O)c1ccc2c(c1)CCN(C(=O)C(C)C)C2 [Example 25, (S)-N-ethyl-2-isobutyryl-N-(1-phenylethyl)-1,2,3,4-tetrahydroisoquinoline-6-sulfonamide] yielded an IC50 of 1450 nM.
CCN(C(c1ccc(F)cc1)C(F)(F)F)S(=O)(=O)c1ccc2c(c1)CN(C(=O)C1COC1)CC2 (stereo not shown) [Example 44, N-ethyl-2-(oxetane-3-carbonyl)-N-(2,2,2-trifluoro-1-(4-fluorophenyl)ethyl)-1,2,3,4-tetrahydroisoquinoline-7-sulfonamide] gave an IC50 of 2040 nM.
Compound CC(C)C(=O)N1CCc2cc(S(=O)(=O)N(C)C3(c4ccc(F)cc4)COC3)ccc2C1 [Example 31, N-(3-(4-fluorophenyl)oxetan-3-yl)-2-isobutyryl-N-methyl-1,2,3,4-tetrahydroisoquinoline-6-sulfonamide] has an IC50 of 9120 nM.
In the case of CCN([C@@H](C)c1ccc(F)cc1)S(=O)(=O)c1cc2c(cn1)CN(C(=O)C1CC1)CC2 [Example 34, (S)-7-(cyclopropanecarbonyl)-N-ethyl-N-(1-(4-fluorophenyl)ethyl)-5,6,7,8-tetrahydro-2,7-naphthyridine-3-sulfonamide], the IC50 is reported as 3020 nM.
Work on CCN(C(c1ccc(F)cc1)C(F)(F)F)S(=O)(=O)c1ccc2c(c1)CN(C1COC1)CC2 (stereo not shown) [Example 45, N-ethyl-2-(oxetan-3-yl)-N-(2,2,2-trifluoro-1-(4-fluorophenyl)ethyl)-1,2,3,4-tetrahydroisoquinoline-7-sulfonamide] yielded an IC50 of 525 nM.
Work on CCN([C@@H](C)c1ccc(C(F)(F)F)cc1)S(=O)(=O)c1ccc2c(c1)CCN(C(=O)C1CC1)C2 [Example 21, (S)-2-(cyclopropanecarbonyl)-N-ethyl-N-(1-(4-(trifluoromethyl)phenyl)ethyl)-1,2,3,4-tetrahydroisoquinoline-6-sulfonamide] yielded an IC50 of 3980 nM.
CCN([C@@H](C)c1ccc(F)cc1)S(=O)(=O)c1ccc2c(c1)CN(C(=O)C(C)(C)F)CC2 [Example 19, (S)-N-ethyl-2-(2-fluoro-2-methylpropanoyl)-N-(1-(4-fluorophenyl)ethyl)-1,2,3,4-tetrahydroisoquinoline-7-sulfonamide] gave an IC50 of 575 nM.
CCN(C(c1ccc(F)cc1)C(F)(F)F)S(=O)(=O)c1ccc2c(c1)CN(C(=O)C(C)(C)F)CC2 (stereo not shown) [Example 18, N-ethyl-2-(2-fluoro-2-methylpropanoyl)-N-(2,2,2-trifluoro-1-(4-fluorophenyl)ethyl)-1,2,3,4-tetrahydroisoquinoline-7-sulfonamide] gave an IC50 of 1100 nM.
C[C@@H](c1ccccc1)N(C)S(=O)(=O)c1ccc2c(c1)CN(C(=O)C1CC1)CC2 [Example 16, (S)-2-(cyclopropanecarbonyl)-N-methyl-N-(1-phenylethyl)-1,2,3,4-tetrahydroisoquinoline-7-sulfonamide] gave an IC50 of 1020 nM.
With C[C@@H](c1ccccc1)N(C)S(=O)(=O)c1ccc2c(c1)CN(c1ccncc1)CC2 [Example 3, (S)-N-methyl-N-(1-phenylethyl)-2-(pyridin-4-yl)-1,2,3,4-tetrahydroisoquinoline-7-sulfonamide] the IC50 was 2090 nM.
With CCN(C(c1ccc(F)cc1)C(F)(F)F)S(=O)(=O)c1ccc2c(c1)CN(C(=O)C1CCOCC1)CC2 (stereo not shown) [Example 43, N-ethyl-2-(tetrahydro-2H-pyran-4-carbonyl)-N-(2,2,2-trifluoro-1-(4-fluorophenyl)ethyl)-1,2,3,4-tetrahydroisoquinoline-7-sulfonamide] the IC50 was 589 nM.
